Results reported in patent publication US20200399329A1, “ANTIMICROBIAL PEPTIDES” (priority 2015, published 2020).
Several values for one entry are separate records, joined by “and”; a condition that tells them apart may be missing. Equal values may be shown once. Entries after “also recorded” stand apart in the source; their conditions may differ. Where a SMILES comes first, the peptide text is derived from it.

What was measured:
[1] = test system: GFPuv E. coli; experiment: GFP leakage from lysed GFPuv E. coli; assay type: cell-based; settings: 50 μM for 30 minutes
Procedure: In order to determine and evaluate the Mechanism of Action (MOA) by which the peptides achieve the remarkable antimicrobial effect they exert, the following experiments were conducted: GFPuv E. coli bacteria are a strain that upon induction expresses green fluorescent protein (GFP). The GFP fluorescence can be detected at 395/509 nm, while live bacteria can be detected via absorbance at 600 nm (OD600).
GFPuv E. coli bacteria ubiquitously express GFP in their cytoplasm upon induction and the fluorescent protein can be detected and visualized. […]
In another experiment, bacteria were grown and induced to express GFP. […] The supernatant (sup) from the two experiment groups CTRL and OMN6, was separated from the pellet and analyzed for the level of fluorescence units (FU) (see FIG. 4B). […] Fluorescence was detected only inside the bacteria which were concentrated in the pellet at the bottom of the tube. […] Both supernatants were probed for the presence of bacteria via absorbance at 600 nm and both supernatants were completely void of bacteria cells (data not shown). […] Thus, in the CTRL group, where the bacteria are intact, no fluorescence is detected in the sup while in the sup from the group treated with OMN6, the GFP that leaked out of the lysed cells is detected.

[2] = test system: human primary erythrocytes; experiment: Hemolysis, cell count and MCV of human primary erythrocytes; assay type: cell-based
Procedure: Since the peptides of the invention are intended inter-alia to operate in wounds or other damaged tissue, a direct contact with patients' blood may occur. Accordingly, an experiment was conducted in order to assess whether OMN6 has cytotoxic effects on human primary erythrocytes. These cells lack any defense mechanism to protect them against damage to the plasma membrane and therefor are a standard model for evaluating cytotoxic effects on eukaryotic cells. The parameter that was measured was the ability of OMN6 to cause hemolysis, red blood cells death, in human erythrocytes. The experiments were performed on human blood samples using ABX PENTRA DF120 machine routinely used by hospital personnel to conduct such tests.
The Mean Corpuscular Volume (MCV) of the erythrocytes is a well-accepted indication of the cells' health and membrane integrity. The experiment was conducted to assess whether OMN6, which forms pores in bacterial membranes, has the ability to damage human cells plasma-membrane. […] (Table 5).
Table 4 and Table 5: hemolysis and Mean Corpuscular Values (MCV) of human primary erythrocytes were evaluated after treatment with OMN6.

[3] = test system: Escherichia coli (ATCC BAA-198) ESBL; experiment: Efficacy in mouse model of subcutaneous infection with E. coli; assay type: in vivo, mice
Procedure: Animals: Healthy adult female mice weighing 16-20 g were used. CD-I outbred (Harlan Breeding Labs, Jerusalem, Israel) were used in all experiments. Animals were caged in groups of 5-10 and were maintained on chow (Ralston Purina) and water ad-libitum.
Bacteria: Escherichia coli (ATCC BAA-198) is an extended spectrum beta-lactamase (ESBL) TEM-26 multi drug resistant strain. Stock cultures were grown in Tryptic Soy Broth (TSB) (Becton, Dickinson and company BD. Maryland, USA) at 37°.
Colonies were counted after incubation for 24 hours on TSB-agar (BD), and results were expressed as colony forming units (CFU)/ml.
Inoculum: All broth cultures were adjusted to 1×10^8 CFU/animal for the challenge dose by adding TSB to a final volume of 50 μl. Bacteria were administered via subcutaneous (SC) injection with tuberculin syringes capped with 29-gauge needles. Recipient animals had the right flank shaved and depilated with hair remover cream (ORNA19, Israel). To inject the inoculum, the needle was inserted SC 1 cm lateral to the thoracic spine and just anterior to the right hind extremity. The needle was tracked anteriorly and SC for 1 cm; then 50 μl of inoculum was injected.
OMN6 peptide at 8 mg/kg in a total volume of 80 μl was injected SC after one hour to the same area. All animals appeared well and fully active within 2-4 hours after this procedure. All animals were monitored for food and water consumption, mortality and any other adverse effects for the entire 5-day duration of the experiment.
Evaluation of Bacterial Burden: A 2 cm^2 area of skin was incised and the inner side, where the abscess was located, was scraped with a sterile scalpel. Scraped tissue was filtered through a 40 μm cell-strainer. Filtered mass was collected, centrifuged at 500 RPM for 2 minutes and a sample from the supernatant was plated on TBS-agar plates for 24 hours at 37°. Colonies were then counted and results are presented as CFU/abscess (see FIG. 10A).
Evaluation of Abscesses: Animals were assessed for the presence and size of abscesses on day 5. The animals were anesthetized (Ketamine 225 mg/kg/Xylazine 6 mg/kg BW IP), the right hind flank area was gently exposed by aseptic technique. Abscesses were recorded and then measured by calipers: the product of the longest diameter (D) and corresponding perpendicular diameter (d) was determined as “abscess size” (D×d) findings presented in mm^2 (see FIG. 10B).

[4] = mice, SC 1×10^8 CFU E. coli ESBL, OMN6 8 mg/kg SC after one hour, day 5

With `CC[C@H](C)[C@H](NC(=O)CNC(=O)[C@H](CC(=O)O)NC(=O)[C@H](CCCNC(=N)N)NC(=O)[C@@H](NC(=O)[C@H](CC(N)=O)NC(=O)[C@H](CCC(N)=O)NC(=O)CNC(=O)[C@@H](NC(=O)[C@H](CCCCN)NC(=O)[C@H](CCC(=O)O)NC(=O)[C@@H](NC(=O)[C@H](CCCCN)NC(=O)[C@H](CCCCN)NC(=O)[C@H](Cc1ccccc1)NC(=O)[C@H](CC(C)C)NC(=O)[C@H](CCCCN)NC(=O)[C@H](Cc1c[nH]c2ccccc12)NC(=O)[C@H](CCCCN)NC(=O)[C@H](CS)NC(=O)[C@@H](N)CCSC)[C@@H](C)CC)C(C)C)[C@@H](C)CC)C(=O)N[C@H](C(=O)N[C@@H](CCCCN)C(=O)N[C@@H](C)C(=O)NCC(=O)N1CCC[C@H]1C(=O)N[C@@H](C)C(=O)N[C@H](C(=O)N[C@@H](C)C(=O)N[C@H](C(=O)N[C@H](C(=O)NCC(=O)N[C@@H](CCC(N)=O)C(=O)N[C@@H](C)C(=O)N[C@H](C(=O)N[C@@H](CCC(N)=O)C(=O)N[C@H](C(=O)N[C@@H](C)C(=O)N[C@@H](CCCCN)C(=O)N[C@@H](CS)C(N)=O)[C@@H](C)CC)[C@@H](C)O)C(C)C)C(C)C)C(C)C)[C@@H](C)CC` [OMN6] (H-MCKWKLFKKIEKVGQNIRDGIIKAGPAVAVVGQATQIAKC-NH2; N-terminus and C-terminus assumed) the “GFP leakage / lysis of bacteria” value [1] was “massive leaking of GFP; also recorded: extensive lysis”, the “Erythrocytes Mean Corpuscular Volume (MCV)” value ([2]; OMN6 10 μM, 30 min) was 64 and the “Number of live erythrocytes” value ([2]; OMN6 10 μM, 30 min) was 1.69 cells*10^6/ml. The “Erythrocytes Mean Corpuscular Volume (MCV)” value ([2]; OMN6 10 μM, 60 min) was 64, the “Number of live erythrocytes” value ([2]; OMN6 10 μM, 60 min) was 1.66 cells*10^6/ml and the “Erythrocytes Mean Corpuscular Volume (MCV)” value ([2]; OMN6 10 μM, 120 min) was 63. The “Number of live erythrocytes” value ([2]; OMN6 10 μM, 120 min) was 1.68 cells*10^6/ml, the “Erythrocytes Mean Corpuscular Volume (MCV)” value ([2]; OMN6 10 μM, 180 min) was 64 and the “Number of live erythrocytes” value ([2]; OMN6 10 μM, 180 min) was 1.67 cells*10^6/ml. The “Erythrocytes Mean Corpuscular Volume (MCV)” value ([2]; OMN6 20 μM, 30 min) was 64, the “Number of live erythrocytes” value ([2]; OMN6 20 μM, 30 min) was 1.65 cells*10^6/ml and the “Erythrocytes Mean Corpuscular Volume (MCV)” value ([2]; OMN6 20 μM, 60 min) was 64. The “Number of live erythrocytes” value ([2]; OMN6 20 μM, 60 min) was 1.70 cells*10^6/ml, the “Erythrocytes Mean Corpuscular Volume (MCV)” value ([2]; OMN6 20 μM, 120 min) was 63 and the “Number of live erythrocytes” value ([2]; OMN6 20 μM, 120 min) was 1.71 cells*10^6/ml. For the same compound, the “Erythrocytes Mean Corpuscular Volume (MCV)” value ([2]; OMN6 20 μM, 180 min) was 64, the “Number of live erythrocytes” value ([2]; OMN6 20 μM, 180 min) was 1.70 cells*10^6/ml and the “Erythrocytes Mean Corpuscular Volume (MCV)” value ([2]; OMN6 40 μM, 30 min) was 64. For the same compound, the “Number of live erythrocytes” value ([2]; OMN6 40 μM, 30 min) was 1.60 cells*10^6/ml, the “Erythrocytes Mean Corpuscular Volume (MCV)” value ([2]; OMN6 40 μM, 60 min) was 64 and the “Number of live erythrocytes” value ([2]; OMN6 40 μM, 60 min) was 1.80 cells*10^6/ml. For the same compound, the “Erythrocytes Mean Corpuscular Volume (MCV)” value ([2]; OMN6 40 μM, 120 min) was 63, the “Number of live erythrocytes” value ([2]; OMN6 40 μM, 120 min) was 1.77 cells*10^6/ml and the “Erythrocytes Mean Corpuscular Volume (MCV)” value ([2]; OMN6 40 μM, 180 min) was 64. For the same compound, the “Number of live erythrocytes” value ([2]; OMN6 40 μM, 180 min) was 1.76 cells*10^6/ml, the “Hemolysis of human erythrocytes” value ([2]; human blood samples) was “hemolysis of cells did not occur” and the “Decrease in abscess size” value ([3]; OMN6 8 mg/kg SC versus sham-saline) was 80%. The “Decrease in bacteria burden” value ([3]; OMN6 8 mg/kg SC versus sham-saline, 8 mg/kg) was 93.3% and 94%, the “Average size of the abscesses (D×d)” value [3, 4] was 7.25 mm^2 and the Bacteria burden [3, 4] was 20 CFU/mouse.
